Columns and labels:
Solubility in water = type: physicochemical; conditions: general statement, no method described
monoarthritis in rats = assay: mBSA-induced monoarthritis model in rats (knee swelling, limping); type: in vivo, rat; conditions: oral daily meloxicam 0.2 mg/kg
Procedure: Monoarthritis was induced in rats (male, Sprague Dawley strain, aged 14 weeks) by intra-articular injection (knee) of 100 μg of mBSA after two preliminary sensitizers (2 and 3 weeks before the induction) by subcutaneous injection of a CFA emulsion containing 500 μg of mBSA. The distribution was carried out on D2, 24 h after induction, as a function of the intensity of the swelling in order to obtain homogeneity between the groups. […] The HBP-meloxicam molecules were solubilized in 5% glucose. In control, the pathological animals (mBSA) received a single injection (caudal vein, 5 min infusion, volume of 10 mL/kg) of 5% glucose.
In reference treatment, the animals received an oral daily administration of meloxicam for 28 days at the NOEL dose of 0.2 mg/kg-0.57 μmol/kg, i.e., a cumulative dose of 15.96 μmol/kg.
The evolution of arthritis was monitored by measuring the swelling of the pathological knee as well as the animal's limping.

Cc1cnc(NC(=O)C2=C(O)c3ccccc3S(=O)(=O)N2C)s1 [meloxicam]
solubility in water (Solubility in water): very poorly soluble | end of limping after treatment (monoarthritis in rats): 9 days

Reference: patent US20250281620A1, “HYDROXYBISPHOSPHONIC DERIVATIVES OF MELOXICAM FOR THE TREATMENT OF INFLAMMATORY JOINT DISEASES” (Atlanthéra, priority 2021, published 2025)
